In patent publication US9573961B2, “Inhibitors of the renal outer medullary potassium channel” (Merck Sharp & Dohme Corp., priority 2012, dated 2017):
Like-named read-outs stand apart in the source and are kept apart here.

Key:
[1] = biological target: hROMK (hKir1.1) (Homo sapiens (Human), UniProt P48048); assay: Thallium Flux Assay (ROMK channel functional thallium flux, FLIPR-Tetra); type: cell-based; conditions: HEK293 cells stably expressing hROMK (hKir1.1); read-out: Thallium Flux IC50
Summary of the method: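 HEK293 cells stably expressing hROMK loaded with FluxOR dye for 90 min, then incubated with compound for 30 min at 23-25 °C. Normalized to a 3 μM standard ROMK inhibitor as % fluorescence change.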

[2] = biological target: Kir1.1 (ROMK1) (Homo sapiens (Human), UniProt P48048); assay: Electrophysiology Assay (whole cell voltage clamp, IonWorks Quattro); type: cell-based; conditions: block during voltage step to 0 mV
Sequence of Kir1.1 (ROMK1) (P48048 whole entry): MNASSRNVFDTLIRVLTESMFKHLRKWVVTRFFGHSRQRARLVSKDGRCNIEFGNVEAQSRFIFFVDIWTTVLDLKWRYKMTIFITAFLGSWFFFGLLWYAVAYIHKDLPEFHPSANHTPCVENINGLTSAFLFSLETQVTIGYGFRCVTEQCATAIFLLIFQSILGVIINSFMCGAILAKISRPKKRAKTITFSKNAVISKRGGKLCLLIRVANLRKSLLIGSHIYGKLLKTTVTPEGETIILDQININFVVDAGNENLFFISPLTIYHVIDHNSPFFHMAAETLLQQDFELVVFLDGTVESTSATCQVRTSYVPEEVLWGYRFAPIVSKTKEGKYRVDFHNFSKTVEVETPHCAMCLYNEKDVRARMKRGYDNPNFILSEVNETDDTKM
Summary of the method: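 CHO cells stably expressing the channel, induced overnight with 1 mM sodium butyrate, were recorded in amphotericin-perforated patch mode. The test pulse was a 100 ms step to 0 mV from −70 mV, then a −70 to +70 mV ramp, applied before and after a 6 min compound incubation. Current amplitudes were compared.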

[3] = Chinese hamster ovary cells stably expressing Kir1.1, read-out: Electrophysiology IC50
[4] = Electrophysiology IC50, Chinese hamster ovary cells stably expressing Kir1.1

Sequence of hROMK (hKir1.1) (P48048 whole entry): as above

Cc1c([C@@H]2CN3CCN(C(=O)C4CCc5cc(-n6cnnn6)ccc54)C[C@H]3CO2)csc1C#N (single isomer, unassigned) [Example 82]
IC50 [1]: 0.33 µM | IC50 [2, 3]: 0.11 µM

Cc1c(C2CN3CCCN(C(=O)Cc4ccc(-n5cnnn5)cc4)CC3CO2)ccc2c1COC2=O (stereo not drawn) [Example 50, 4-methyl-5-(9-{[4-(1H-tetrazol-1-yl)phenyl]acetyl}octahydro-1H-[1,4]oxazino[4,3-a][1,4]diazepin-3-yl)-2-benzofuran-1(3H)-one]
IC50 [1]: 0.74 µM | IC50 [2, 4]: 0.18 µM

COc1cc(CC(=O)N2CCN3C[C@@H](c4ccc5c(c4)COC5=O)OC[C@@H]3C2)c(F)cc1C#N [Example 10, 5-fluoro-2-methoxy-4-{2-oxo-2-[(3R,9aS)-3-(1-oxo-1,3-dihydro-2-benzofuran-5-yl)hexahydropyrazino[2,1-c][1,4]oxazin-8(1H)-yl]ethyl}benzonitrile]
IC50 [1]: 0.13 µM | IC50 [2, 4]: 0.09 µM

Cc1c([C@H]2CN3CCN(C(=O)C4CCc5cc(-n6cnnn6)ccc54)C[C@H]3CO2)ccc(F)c1C#N (single isomer, unassigned) [Example 98]
IC50 [1]: 0.17 µM | IC50 [2, 3]: 0.14 µM

O=C(C1CCc2cc(-n3cnnn3)ccc21)N1CCN2C[C@@H](c3ccc4nonc4c3)OC[C@@H]2C1 (stereo partly drawn) [Example 78, (3R,9aS)-3-(2,1,3-benzoxadiazol-5-yl)-8-{[5-(1H-tetrazol-1-yl)-2,3-dihydro-1H-inden-1-yl]carbonyl}octahydropyrazino[2,1-c][1,4]oxazine]
IC50 [1]: 0.21 µM | IC50 [2, 3]: 0.1 µM

C[C@@H]1Cc2cc([C@@H]3CN4CCN(C(=O)Cc5ccc(-n6cnnn6)cc5)C[C@H]4CN3)ccc2C(=O)O1 [Example 104]
IC50 [1]: 0.29 µM | IC50 [2, 4]: 0.38 µM
